Tests used:
[1] = test system: ethanol/HCl-induced gastric lesions; experiment: Ethanol/HCl-induced gastric lesion (ulcer) model in mice; type: in vivo; conditions: for Gastroprotective effect: Lesion index: mean ± SD; for gastric lesion reduction at the higher doses: dose-response study, higher oral doses (50 and 100 mg/kg)
Method: The gastroprotective activity of the compounds was determined in the ethanol/HCl-induced lesion model in mice. The purity of the tested compounds was higher than 95% by NMR analysis. Male Swiss albino mice weighing 30 ± 3 g were used. Animals were fed on certified Champion diet with free access to water under standard conditions of 12 h dark-light period, 50% relative humidity and 22 °C room temperature. Mice were randomly distributed into groups of eight animals each and fasted for 24 h with free access to water previous to the experiment. Fasting prior to ulcerogenic assays was used because 0.2 mL of the reference antisecretory drug lansoprazole (2-[[[3-methyl-4-(2,2,2-trifluroethoxy)-2-pyridyl]methyl]sulfinyl]benzimidazole) and the amides were administered orally. To keep the animal number to a minimum, dose-response studies were performed with the leucine derivatives 13 and 18 to set the conditions for single-dose comparison of gastroprotective effect. For the selected parent compounds, three doses were used: 25, 50 and 100 mg/kg. Fifty min after oral administration of the compounds, lansoprazole (20 mg/kg) or the vehicle (12% Tween 80, 10 mL/kg), all groups were orally treated with 0.2 mL of a solution containing 60% ethanol/0.3 M HCl (ethanol/HCl) for gastric lesion induction. Animals were sacrificed by cervical dislocation 1 h after the administration of ethanol/HCl, and the stomachs excised and inflated by injection of 5% formalin (1 mL). The ulcerated stomachs were fixed in 5% formalin for 30 min and opened along the greater curvature. The length (mm) of each lesion was measured, and the lesion index expressed as the sum of the length of all lesions. For comparison purposes, the products 1-5, 7-12, 14-16, 19 and 20 were assessed at a single oral dose of 25 mg/kg. The protocols were approved by the Universidad de Talca Institutional Animal Care and Use Committee, which follows the recommendations of the Canadian Council on Animal Care. Tween 80 and lansoprazole (> 98% purity by HPLC) were purchased from Sigma Chemical Co.
Results were expressed as the mean ± SD. In all experiments, statistical differences between several treatments and their respective control were determined by one-way analysis of variance (ANOVA) and when the F value was significant, post hoc differences were determined by the Dunnett's multiple comparison test. The level of significance was set at P < 0.05. All statistical analyses were performed using the software Statistica 5.1 (StatSoft, Inc.) and Statistical Package S-Plus 2000.

[2] = Cytotoxicity, neutral red uptake assay, MRC-5; type: cell-based; conditions: human, MRC-5 normal lung fibroblasts, confluent monolayers, confluent cultures, 0-1000 µM, mean ± SD
Method: (§1) Human normal lung fibroblasts MRC-5 (ATCC CCL-171) and Hep G2 cells (ATCC HB-8065) were grown as monolayers in minimum essential Eagle´s medium (MEM), with Earle's salts, 2.0 mM L-glutamine (Sigma Chemical Co.) and 2.0 g/L sodium bicarbonate (Sigma Chemical Co.), supplemented with 10% heat-inactivated fetal bovine serum (FBS), 100 IU/mL penicillin and 100 µg/mL streptomycin in a humidified incubator with 5% CO2 in air at 37 °C. Cell passage was maintained between 10 and 16 for MRC-5 and between 79 and 82 for Hep G2 cells. The medium was changed every 2 days. Culture media, antibiotics and FBS were obtained from Invitrogen Corp.
(§2) Confluent cultures of MRC-5, AGS and Hep G2 cells were treated with medium containing the compounds at concentrations ranging from 0 up to 1000 µM. The products were first dissolved in DMSO and then in the corresponding culture medium supplemented with 2% FBS. The final content of DMSO in the test medium and controls was 1%. Cells were exposed for 24 h to the assayed compounds. Untreated cells served as controls. Each concentration was tested in quadruplicate together with the control and repeated three times in separate experiments. At the end of the incubation, the neutral red uptake (NRU) assay was carried out to determine cell viability. To calculate the IC50 values (concentration that produces a 50% inhibitory effect on the evaluated parameter) the results were transformed to percentage of controls and the IC50 value was graphically obtained from the dose-response curves.

[3] = Cytotoxicity, neutral red uptake assay, AGS; type: cell-based; conditions: human, AGS gastric adenocarcinoma cells, confluent monolayers, confluent cultures, 0-1000 µM, mean ± SD
Method: as §2, with “Human gastric adenocarcinoma cells AGS (ATCC CRL-1739) were grown as monolayers in Ham F-12 medium containing 1.0 mM L-glutamine and 1.5 g/L sodium bicarbonate, supplemented with 10% heat-inactivated FBS, 100 IU/mL penicillin and 100 µg/mL streptomycin in a humidified incubator with 5% CO2 in air at 37 °C. The cell passage was maintained between 42 and 48. The medium was changed every 2 days. Confluent” for “Confluent”

[4] = Cytotoxicity, neutral red uptake assay, Hep G2; type: cell-based; conditions: human, Hep G2 cells, confluent monolayers, confluent cultures, 0-1000 µM, mean ± SD
Method: as §1, §2

[5] = Mus musculus, po, single oral dose 25 mg/kg, compared with untreated controls, read-out: Gastroprotective effect: % Lesion reduction
[6] = single oral dose 25 mg/kg, sum of lesion lengths
[7] = single oral dose 25 mg/kg, sum of lesion lengths, 25 mg/kg

With C=C1CCC2[C@](C)(CCC[C@]2(C)C(=O)N[C@@H](Cc2c[nH]c3ccccc23)C(=O)OCC)[C@H]1CC[C@@H](C)CC(=O)N[C@@H](Cc1c[nH]c2ccccc12)C(=O)OCC (some centres unmarked) [Compound 20, Labd-8(17)-en-15,19-dioic acid, 15,19-ditryptophanyl ethyl ester amide] the inhibition in vivo at 25 mg/kg [1, 5] was 68.9%, the “Gastroprotective effect: Lesion index” value [1, 6] was 14.3 ± 10.7 mm and the IC50 at 24 h [2] was over 1000 µM. It also gave an IC50 at 24 h [3] of over 1000 µM and an IC50 at 24 h [4] of over 1000 µM.

With Cc1c(OCC(F)(F)F)ccnc1C[S+]([O-])c1nc2ccccc2[nH]1 (centres unmarked) [Lansoprazole, 2-[[[3-methyl-4-(2,2,2-trifluroethoxy)-2-pyridyl]methyl]sulfinyl]benzimidazole, reference compound] the inhibition in vivo at 20 mg/kg ([1]; Mus musculus, po, reference drug at 20 mg/kg oral, compared with untreated controls, read-out: Gastroprotective effect: % Lesion reduction) was 79.3%, the “Gastroprotective effect: Lesion index” value ([1]; reference drug at 20 mg/kg oral, 20 mg/kg) was 9.5 ± 2.5 mm and the “Gastroprotective effect: Lesion index” value ([1]; reference drug at 20 mg/kg oral, listed as lansoprazole, 20 mg/kg) was 9.5 ± 2.5 mm. For the same compound, the IC50 at 24 h [2] was 306 ± 11 µM, the IC50 at 24 h [3] was 162 ± 6 µM and the IC50 at 24 h [4] was 221 ± 9 µM.

With C=C1CCC2[C@](C)(CCC[C@]2(C)C(=O)O)[C@H]1CC[C@@H](C)CC(=O)N[C@H](C(=O)OC)C(C)C (some centres unmarked) [Compound 12, Labd-8(17)-en-15,19-dioic acid, 15-valyl methyl ester amide] the inhibition in vivo at 25 mg/kg [1, 5] was 66.5%, the “Gastroprotective effect: Lesion index” value [1, 6] was 15.4 ± 8.8 mm and the IC50 at 24 h [2] was 380 ± 19 µM. It also gave an IC50 at 24 h [3] of 309 ± 18 µM and an IC50 at 24 h [4] of 673 ± 34 µM.

For COC(=O)CNC(=O)C[C@H](C)CCC1=C(C)CCC2[C@@](C)(C(=O)O)CCC[C@]12C (some centres unmarked) [Compound 1, Labd-8(9)-en-15,19-dioic acid, 15-glycyl methyl ester amide], the inhibition in vivo at 25 mg/kg [1, 5] was 73.3%, the “Gastroprotective effect: Lesion index” value [1, 6] was 12.3 ± 7.6 mm and the IC50 at 24 h [2] was 447 ± 26 µM. For the same compound, the IC50 at 24 h [3] was 189 ± 9 µM and the IC50 at 24 h [4] was 242 ± 13 µM.

In the case of C=C1CCC2[C@](C)(CCC[C@]2(C)C(=O)N2CCC[C@H]2C(=O)OC)[C@H]1CC[C@@H](C)CC(=O)N1CCC[C@H]1C(=O)OC (some centres unmarked) [Compound 19, Labd-8(17)-en-15,19-dioic acid, 15,19-diprolyl methyl ester amide], the inhibition in vivo at 25 mg/kg [1, 5] is reported as 87.8%, the “Gastroprotective effect: Lesion index” value [1, 6] is reported as 5.6 ± 3.2 mm and the IC50 at 24 h [2] is reported as 267 ± 14 µM. The IC50 at 24 h [3] was 206 ± 10 µM and the IC50 at 24 h [4] was 316 ± 16 µM.

For C=C1CCC2[C@](C)(CCC[C@]2(C)C(=O)N[C@@H](CC(C)C)C(=O)OC)[C@H]1CC[C@@H](C)CC(=O)N[C@@H](CC(C)C)C(=O)OC (some centres unmarked) [Compound 18, Labd-8(17)-en-15,19-dioic acid, 15,19-dileucyl methyl ester amide], the inhibition in vivo at 25 mg/kg [1, 5] was about 49.6%, the “gastric lesion reduction at the higher doses” value [1] was 79-89% and the “Gastroprotective effect: Lesion index” value [1, 7] was 23.2 ± 12.9 mm. The IC50 at 24 h [2] was 495 ± 35 µM, the IC50 at 24 h [3] was over 1000 µM and the IC50 at 24 h [4] was over 1000 µM.

For C=C1CCC2[C@](C)(CCC[C@]2(C)C(=O)O)[C@H]1CC[C@@H](C)CC(=O)N1CCC[C@H]1C(=O)OC (some centres unmarked) [Compound 14, Labd-8(17)-en-15,19-dioic acid, 15-prolyl methyl ester amide], the inhibition in vivo at 25 mg/kg [1, 5] was 59.8%, the “Gastroprotective effect: Lesion index” value [1, 6] was 18.5 ± 11.8 mm and the IC50 at 24 h [2] was over 1000 µM. It also gave an IC50 at 24 h [3] of 297 ± 14 µM and an IC50 at 24 h [4] of 894 ± 56 µM.

In the case of C=C1CCC2[C@](C)(CCC[C@]2(C)C(=O)O)[C@H]1CC[C@@H](C)CC(=O)N[C@@H](CC(C)C)C(=O)OC (some centres unmarked) [Compound 13, Labd-8(17)-en-15,19-dioic acid, 15-leucyl methyl ester amide], the inhibition in vivo at 25 mg/kg [1, 5] is reported as about 65.6%, the “gastric lesion reduction at the higher doses” value [1] is reported as 79-89% and the “Gastroprotective effect: % Lesion reduction” value ([1]; single oral dose 25 mg/kg, compared with untreated controls, 25 mg/kg) is reported as 65.6%. For the same compound, the “Gastroprotective effect: Lesion index” value [1, 7] was 15.8 ± 6.2 mm, the IC50 at 24 h [2] was 449 ± 29 µM and the IC50 at 24 h [3] was 308 ± 17 µM. It also gave an IC50 at 24 h [4] of 808 ± 48 µM.

For C=C1CCC2[C@](C)(CCC[C@]2(C)C(=O)O)[C@H]1CC[C@@H](C)CC(=O)NCC(=O)OC (some centres unmarked) [Compound 11, Labd-8(17)-en-15,19-dioic acid, 15-glycyl methyl ester amide], the inhibition in vivo at 25 mg/kg [1, 5] was 71.9%, the “Gastroprotective effect: Lesion index” value [1, 6] was 12.9 ± 8.1 mm and the IC50 at 24 h [2] was over 1000 µM. For the same compound, the IC50 at 24 h [3] was 361 ± 18 µM and the IC50 at 24 h [4] was 541 ± 22 µM.

With COC(=O)CNC(=O)C[C@H](C)CCC1=C(C)CCC2[C@@](C)(C(=O)NCC(=O)OC)CCC[C@]12C (some centres unmarked) [Compound 8, Labd-8(9)-en-15,19-dioic acid, 15,19-diglycyl methyl ester amide] the inhibition in vivo at 25 mg/kg [1, 5] was 62%, the “Gastroprotective effect: Lesion index” value [1, 6] was 17.5 ± 9.9 mm and the IC50 at 24 h [2] was 890 ± 45 µM. For the same compound, the IC50 at 24 h [3] was 592 ± 30 µM and the IC50 at 24 h [4] was 841 ± 42 µM.

For COC(=O)[C@@H]1CCCN1C(=O)C[C@H](C)CCC1=C(C)CCC2[C@@](C)(C(=O)N3CCC[C@H]3C(=O)OC)CCC[C@]12C (some centres unmarked) [Compound 9, Labd-8(9)-en-15,19-dioic acid, 15,19-diprolyl methyl ester amide], the inhibition in vivo at 25 mg/kg [1, 5] was 60%, the “Gastroprotective effect: Lesion index” value [1, 6] was 18.4 ± 11.3 mm and the IC50 at 24 h [2] was 119 ± 7 µM. The IC50 at 24 h [3] was 82 ± 4 µM and the IC50 at 24 h [4] was 67 ± 3 µM.

For COC(=O)[C@@H](NC(=O)C[C@H](C)CCC1=C(C)CCC2[C@@](C)(C(=O)O)CCC[C@]12C)C(C)C (some centres unmarked) [Compound 2, Labd-8(9)-en-15,19-dioic acid, 15-valyl methyl ester amide], the inhibition in vivo at 25 mg/kg [1, 5] was 58.5%, the “Gastroprotective effect: Lesion index” value [1, 6] was 19.1 ± 8.3 mm and the IC50 at 24 h [2] was over 1000 µM. It also gave an IC50 at 24 h [3] of over 1000 µM and an IC50 at 24 h [4] of over 1000 µM.

With COC(=O)[C@@H]1CCCN1C(=O)C[C@H](C)CCC1=C(C)CCC2[C@@](C)(C(=O)O)CCC[C@]12C (some centres unmarked) [Compound 4, Labd-8(9)-en-15,19-dioic acid, 15-prolyl methyl ester amide] the inhibition in vivo at 25 mg/kg [1, 5] was 70.9%, the “Gastroprotective effect: Lesion index” value [1, 6] was 13.4 ± 6.8 mm and the IC50 at 24 h [2] was 288 ± 11 µM. It also gave an IC50 at 24 h [3] of 167 ± 7 µM and an IC50 at 24 h [4] of 321 ± 14 µM.

With COC(=O)[C@H](Cc1c[nH]c2ccccc12)NC(=O)C[C@H](C)CCC1=C(C)CCC2[C@@](C)(C(=O)O)CCC[C@]12C (some centres unmarked) [Compound 5, Labd-8(9)-en-15,19-dioic acid, 15-tryptophanyl methyl ester amide] the inhibition in vivo at 25 mg/kg [1, 5] was 25.4%, the “Gastroprotective effect: Lesion index” value [1, 6] was 34.3 ±12.0 mm and the IC50 at 24 h [2] was 260 ± 15 µM. For the same compound, the IC50 at 24 h [3] was 149 ± 7 µM and the IC50 at 24 h [4] was 291 ± 11 µM.

— article PMC6259277, “Synthesis, Gastroprotective Effect and Cytotoxicity of New Amino Acid Diterpene Monoamides and Diamides” (Molecules, 2010)
